Source: patent US20220354847A1, “THIAMINE THERAPY FOR FATTY LIVER ASSOCIATED DISEASES” (priority 2019, published 2022)

Key:
hepatic steatosis = conditions: literature (Biomedical Reports 2013; Journal of Hepatology 2016); cited from earlier work
liver histology = conditions: literature, cited from earlier work; for associated adverse effects: long-term treatment
[1] = tested on: hepatic alterations caused by a high-fat diet; conditions: mice; literature; cited from earlier work
[2] = tested on: hepatic steatosis in lambs grown on the HC diet
[3] = tested on: circulating leukocytes gene expression; conditions: FIG. 14A
[4] = tested on: lambs grown on the HC diet; conditions: within one week of treatment; saline-treated HC group 77.2 mg/dL

**Q.** With `N[C@@H](CC(=O)N1CCn2c(nnc2C(F)(F)F)C1)Cc1cc(F)c(F)cc1F` [Sitagliptin] as the compound, how does the “effect on hepatic steatosis / liver fat” value (hepatic steatosis) read?
**A.** ineffective

**Q.** With `CN(C)C(=N)N=C(N)N` [metformin] as the compound, how does the “effect on hepatic steatosis / liver fat” value (hepatic steatosis) read?
**A.** no effect

**Q.** For `CCc1ccc(CCOc2ccc(CC3SC(=O)NC3=O)cc2)nc1` (stereo not drawn) [pioglitazone], which associated adverse effects (liver histology) is on record?
**A.** weight gain

**Q.** For `O=C1CCC(N2C(=O)c3ccccc3C2=O)C(=O)N1` (stereo not drawn) [thalidomide], which “hepatic alterations caused by a high-fat diet” value [1] is on record?
**A.** improvements

**Q.** With `Cc1ncc(C[n+]2csc(CCO)c2C)c(N)n1` [thiamine] as the compound, how does the “liver expression of APOB” value (liver gene expression; FIG. 13C) read?
**A.** No effects

**Q.** And the “liver expression of the energy-sensing axis and of the transporters of NEFA (CD36, SLC27A6, SLC27A5)” value (liver gene expression; FIG. 13D)?
**A.** No effect

**Q.** What about the “liver gene expression of NFKB1, IL1B, CCL2 and IL8” value (liver gene expression; FIG. 14B) of the same compound?
**A.** No significant alterations

**Q.** What about the “liver expression of catalase” value (liver gene expression; FIG. 14C) of the same compound?
**A.** did not affect

**Q.** And the “liver expression of TNF” value (liver gene expression; P=0.005, FIG. 14B)?
**A.** lowered

**Q.** And the “liver expression of superoxide dismutase 2 (SOD2)” value (liver gene expression; P=0.02, FIG. 14C)?
**A.** increase

**Q.** And the “liver expression of genes coding for AMPK (PRKAA2), PGC-1α (PPARGC1A) and PPAR-α (PPARA)” value (liver gene expression; THC vs HC)?
**A.** did not affect

**Q.** What about the “Perilipin 2 transcripts in liver” value (liver gene expression; THC vs HC, P=0.002, FIG. 13C) of the same compound?
**A.** lowered Perilipin 2 transcripts substantially

**Q.** What about the “liver expression of SIRT1” value (liver gene expression; between the treatments, FIG. 13A) of the same compound?
**A.** not different

**Q.** And the “abundance of MTTP transcripts in liver” value (liver gene expression; compared with untreated HC group, P=0.001)?
**A.** increased

**Q.** What about the “liver expression of glutathione peroxidase 1 (GPX1)” value (liver gene expression; in vivo) of the same compound?
**A.** no detected treatment effects

**Q.** What about the “inflammatory state increased by the HC diet (proinflammatory gene expression)” value (liver gene expression; leukocyte and liver, FIG. 14 legend) of the same compound?
**A.** partially alleviated

**Q.** And the “hepatocellular steatosis (macro-vesicular or micro-vesicular, histology score 0 to 3)” value ([2]; HC vs LC and THC, FIG. 11B, 11D)?
**A.** significantly increased in the HC compared to both the LC and THC groups

**Q.** And the “hepatic steatosis (liver fat content, percentage of wet liver weight)” value ([2]; THC group, HC diet + thiamine 300 mg/animal s.c. 3 then 5 times a week for the last 85 of 135 days, HC=8.1%, LC 3.8%, P<0.0001)?
**A.** 4.8%

**Q.** What about the “hepatic index (liver weight/BW)” value ([2]; THC vs HC, FIG. 11C) of the same compound?
**A.** no significant effect

**Q.** And the “leukocyte expression of IL1B, TNF and IFNG” value [3]?
**A.** No treatment effects

**Q.** What about the “leukocyte expression of CXCL8” value ([3]; thiamine-treated animals, P=0.05) of the same compound?
**A.** lower expression

**Q.** What about the blood glucose levels [4] of the same compound?
**A.** 71.7 mg/dL

**Q.** With vitamin E as the compound, how does the “effect on liver histology” value (liver histology; biopsy-proven NASH patients) read?
**A.** improve liver histology

**Q.** What about the associated adverse effects (liver histology) of the same compound?
**A.** modest increase in the risk for prostate cancer
